Assay results from US12208105B2, “Methods for attenuating graft-versus-host disease and opportunistic infections” (priority 2018, dated 2025).

How the values were obtained:
CCR7 [1] = molecular target: T1, CCR7 (Mus musculus, UniProt P47774); assay: Trans-well chemotaxis assay, primary murine T cells; assay type: cell-based
T1 construct: confirm that hits identified in the HTS were active against native CCR7; endogenous in cells; host or cells: primary naive (CD25neg) T cells from C57BL/6 mice
T1 sequence (P47774 25-378): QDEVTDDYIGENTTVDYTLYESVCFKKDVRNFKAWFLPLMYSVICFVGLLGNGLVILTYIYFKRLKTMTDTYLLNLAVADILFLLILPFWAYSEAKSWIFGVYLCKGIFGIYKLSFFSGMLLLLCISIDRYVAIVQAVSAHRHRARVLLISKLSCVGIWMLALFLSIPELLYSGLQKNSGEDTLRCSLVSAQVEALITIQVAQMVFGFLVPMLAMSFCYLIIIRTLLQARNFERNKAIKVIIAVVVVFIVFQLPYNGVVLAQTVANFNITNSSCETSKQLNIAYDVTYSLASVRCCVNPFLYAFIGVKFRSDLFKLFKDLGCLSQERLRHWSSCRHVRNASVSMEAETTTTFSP
Description: FIGS. 1A-1D show cosalane impairs CCR7 driven human and murine chemotaxis. (A, B) Chemotaxis media with or without CCL19 (A) or CCL21 (B) was added to the lower chambers of the chemotaxis device. Previously untreated H9 cells were then placed in the upper chambers of the device with or without cosalane at a concentration of 2 μM. The chamber was then placed at 37° C. for 3.5 hours and total H9 migration from each upper to lower chamber determined. (A) *P=0.048 for comparison between H9 cells/30 nM CCL19 and H9 cells/30 nM CCL19/2 μM cosalane by Student's t test. (B) P>0.05 for comparison between H9 cells/200 nM CCL21 and H9 cells/200 nM CCL21/2 μM cosalane. (C, D) Chemotaxis media with or without CCL19 (C) or CCL21 (D) was added to the lower chambers of the chemotaxis device. Previously untreated primary murine T cells were then placed in the upper chambers of the device with or without cosalane at a concentration of 2 μM. Total T cell migration from each upper to lower chamber was then determined. (C) *P=0.029. (D) *P<0.001.
While useful from a screening perspective, our primary reporter assays for the HTS were not physiologic. As a result, it was important to confirm that hits identified in the HTS were active against native CCR7 and could block an actual function mediated by the receptor. For this, we used a well-described trans-well chemotaxis assay system using human H9 cells, a cutaneous T cell lymphoma line known to express high levels of CCR7 and to migrate in response to its ligands (Ott et al., J. Pharmacol. Toxicol. Meth. 51:105 (2005)). In addition, we utilized primary mouse, naïve (CD25^neg) T cells obtained from C57BL/6 mice. As depicted in FIG. 1A, human H9 cells placed in the upper chambers of the chemotaxis device readily migrated through the separating membrane when CCL19 was present in the lower chamber. […] Similarly, murine T cell chemotaxis was also impaired by cosalane in response to both CCL19 and CCL21 (FIGS. 1C-1D).
To evaluate this possibility, human H9 cells were incubated with 10 mcg/ml (13 μM) of cosalane versus DMSO vehicle for one hour and then washed free of the compound. The cells were then placed into the chemotaxis chamber as was done in FIGS. 1A-1D. […] Similar experiments were performed with naïve primary mouse T cells.

[2] = in vitro, previous reports; cited from earlier work
[3] = tested on: herpes simplex 1 and 2 and human cytomegalovirus; conditions: cited from earlier work
CCR7 [4] = molecular target: T2, CCR7 (Homo sapiens, UniProt P32248); conditions: cited from earlier work
T2 sequence (P32248 25-378): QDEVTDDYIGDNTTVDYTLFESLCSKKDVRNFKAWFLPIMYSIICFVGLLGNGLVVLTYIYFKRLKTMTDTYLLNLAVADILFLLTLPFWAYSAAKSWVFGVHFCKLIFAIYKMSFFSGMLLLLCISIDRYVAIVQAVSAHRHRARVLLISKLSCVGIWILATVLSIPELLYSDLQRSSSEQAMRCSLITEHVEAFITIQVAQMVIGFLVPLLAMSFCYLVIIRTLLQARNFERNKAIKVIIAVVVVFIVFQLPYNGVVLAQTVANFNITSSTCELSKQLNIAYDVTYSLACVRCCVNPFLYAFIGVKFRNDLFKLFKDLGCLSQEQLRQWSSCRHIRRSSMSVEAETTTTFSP

CCR1 = molecular target: T3, CCR1 (Homo sapiens, UniProt P32246); conditions: cited from earlier work
T3 sequence (P32246 1-355): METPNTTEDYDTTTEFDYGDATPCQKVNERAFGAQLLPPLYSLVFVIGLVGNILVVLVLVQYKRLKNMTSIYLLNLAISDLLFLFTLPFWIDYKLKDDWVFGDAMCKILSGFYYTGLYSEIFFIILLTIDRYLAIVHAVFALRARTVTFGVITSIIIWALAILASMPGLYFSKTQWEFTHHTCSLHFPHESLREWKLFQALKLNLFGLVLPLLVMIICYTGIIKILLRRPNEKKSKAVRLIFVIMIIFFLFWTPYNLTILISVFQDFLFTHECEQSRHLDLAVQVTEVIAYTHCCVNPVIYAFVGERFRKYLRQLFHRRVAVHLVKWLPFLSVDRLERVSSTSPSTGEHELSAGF

[5] = tested on: B6 into BALB/c aGVHD model; assay: aGVHD, B6 into BALB/c MHC mismatched allograft, Tcons incubated ex vivo; assay type: in vivo, mouse
[6] = tested on: murine cytomegalovirus (mCMV); assay: Murine cytomegalovirus plaque assay on 3T3 fibroblasts; assay type: cell-based
[7] = tested on: CCR7-/- B6 into BALB/c aGVHD model; assay: aGVHD induced with CCR7-/- B6 Tcons into BALB/c
Description: (A, B) BALB/c mice were lethally irradiated on transplant day −1. On day 0 recipients were administered 5×10^6 TCD B6 BM cells +/−3×10^6 CCR7^−/− B6 Tcons. Donor Tcons were incubated ex vivo with DMSO vehicle or cosalane diluted in normal saline at 15 μg/ml. The cells were then mixed with untreated TCD B6 BM cells and administered immediately to recipient mice by tail vein injection. Mice were then followed for survival and scored for aGVHD. N=2 BM only. N=6 for all other treatment groups. […] (C, D) BALB/c mice were transplanted as in A, B. Donor CCR7^−/− B6 Tcons, however, were incubated ex vivo with DMSO vehicle or cosalane diluted in normal saline at 30 μg/ml. N=2 BM only. N=9 for all other treatment groups.
As a result, we repeated our CCR7^−/− B6 into BALB/c transplant but pre-incubated the donor Tcons with an identical cosalane strength of 30 μg/ml.

B6 Tcons = assay: Tcon proliferation assay
Description: (A) B6 Tcons were purified and incubated with increasing concentrations of cosalane or equal volumes of DMSO vehicle in normal saline for one hour at 37° C. The cells were then washed and cultured on 24 well plates pre-coated with anti-CD3 and anti-CD28 antibody in the presence of supplemental IL-2 for 72 hours. The number of cells per well were then quantified.
Tcon proliferation assay: Purified CD25^− B6 Tcons were incubated with cosalane at the indicated concentrations or an equal volume of DMSO vehicle for one hour at 37° C. The cells were then washed and cultured on 24-well plates previously incubated overnight with anti-CD3 and anti-CD28 antibody at 10 μg/ml. The cells were cultured for 72 hours in complete media supplemented with murine interleukin-2 at 100 IUs/ml and then counted using a hemacytometer.
Purified B6 Tcons were isolated as before and incubated with cosalane at increasing concentrations ranging from 10 μg/ml (13 μM—the concentration used for the B6 into B6D2 survival experiment described in FIGS. 3D and 3E) to 30 μg/ml (39 μM) or an equal volume of DMSO diluted in normal saline. The cells were then washed, placed on 24 well plates pre-coated with anti-CD3 and anti-CD28 immunoglobulin, and cultured for 72 hours in media containing supplemental IL-2.

[8] = cited from earlier work
[9] = 10 mcg/ml (13 μM), then washed, vs DMSO

CC(C)CCC[C@@H](C)[C@H]1CC[C@H]2[C@@H]3CC[C@H]4C[C@@H](CCC=C(c5cc(Cl)c(O)c(C(=O)O)c5)c5cc(Cl)c(O)c(C(=O)O)c5)CC[C@]4(C)[C@H]3CC[C@]12C [Cosalane, cosalane]
murine T cell chemotaxis in response to CCL19 (CCR7 [1]; 2 μM cosalane in upper chamber): impaired
murine T cell chemotaxis in response to CCL21 (CCR7 [1]; 2 μM cosalane in upper chamber): impaired
primary murine T cell chemotaxis in response to CCL19 after pretreatment (CCR7 [1]; [9]): significantly reduced
primary murine T cell chemotaxis in response to CCL21 after pretreatment (CCR7 [1]; [9]): significantly reduced
therapeutic index [2]: > 100
viral cytopathic effect induced by herpes viruses [3]: block viral cytopathic effect
activity against CCL19 versus CCL21 (CCR7 [4]): approximately 10 fold
CCR1 dependent chemotaxis in response to CCL3 and CCL4 (CCR1): inactive
CCR1 dependent chemotaxis in response to CCL5 (CCR1): blocked
survival times ([5]; Tcons incubated 15 μg/ml in saline): prolonged survival times
survival ([5]; Tcons incubated 30 μg/ml): most recipients surviving to the end of the study period
mCMV plaque number / activity, compound in infectivity media ([6]; 15 μg/ml throughout infection, MOI 0.05 and 0.005, vs DMSO): significantly reduced plaque number
mCMV visible cytopathic effect, isolated pretreatment of 3T3 cells ([6]; pretreatment only): virtually no effect
aGVHD with CCR7-/- donor Tcons ([7]; Tcons incubated 15 μg/ml): completely inactive
aGVHD scores with CCR7-/- donor Tcons ([7]; Tcons incubated 30 μg/ml): trend for lower aGVHD scores
survival times with CCR7-/- donor Tcons ([7]; Tcons incubated 30 μg/ml): longer survival times
Tcon cell numbers after culture (B6 Tcons; 10 μg/ml (13 μM) to 30 μg/ml (39 μM), one hour, washed, 72 hours anti-CD3/anti-CD28/IL-2): no differences in cell numbers
cytotoxicity in vitro (B6 Tcons; doses up to 39 μM): did not induce any apparent cytotoxicity
tissue accumulation ([8]; administered intravenously): propensity to accumulate within the liver
oral bioavailability ([8]; in vivo, po): very poor oral bioavailability
